Results: patent publication US11926644B2, “Syntheses, activities, and methods of use of dihydronicotinamide riboside derivatives” (Cornell University, priority 2015, dated 2024)

Columns and labels:
[1] = system: HEK293 cells; test: NAD+ measurement in HEK293 cells (NAD+ cycling assay); conditions: for cellular NAD concentration: 6 hours of incubation, 50-500 μM
Experimental: Cell number were counted using hemocytometer.
After 6 hours of incubation, cells were harvested with Trypsin. A cell count was obtained from each cell suspension by hemacytometer. The cell pellets were used for NAD^+ measurement.
Water-only and nicotinamide riboside (NR) control treatments were run.
HEK cells were plated in 6-well plates until 90% confluent. […] After 6 hours of incubation, cells were harvested with Trypsin. A cell count was obtained from each cell suspension by hemacytometer. The cell pellets were used for NAD^+ measurement.

[2] = system: INS1 cells; test: Glucose-induced insulin secretion test in INS1 cells with hydrogen peroxide challenge; type: cell-based; conditions: 1 mM, 100 μM hydrogen peroxide, 15 mmol/l glucose
Experimental: To induce insulin secretion, INS1 cells were seeded in 6-well plate. The cells were accommodated to low glucose RPMI-1640 media with 5 mmol/1 D-glucose overnight. Insulin secretion was assayed in HEPES balanced salt solution (HESS) (114 mmol/1 NaCl, 4.7 mmol/1 KCl, 1.2 mmol/1 KH2PO4, 1.16 mmol/1 MgSO4, 20 mmol/1 HEPES, 2.5 mmol/1 CaCl2, 25.5 mmol/1 NaHCO3, and 0.2% bovine serum albumin [essentially fatty acid free], pH 7.2). Cells wore washed in 1 ml HESS with 3 mmol/1 glucose followed by a 2 hr preincubation in 2 ml of the same buffer. Insulin secretion was then measured by incubating 1 hr 1 ml of HESS containing the 3 mmol/1 or 15 mmol/1 glucose concentration. The media was then collected for insulin analysis using RayBio™ Rat Insulin ELISA kit according to manufacturer's manual. In hydrogen peroxide challenge, 100 μM hydrogen peroxide were added to media together with 3 mmol/1 glucose containing HESS and incubated for 2 hr before switch to 15 mmol/l glucose containing HBSS for insulin secretion.

[3] = HEK cells, 50 μM, 6 hours, percentages of average NAD^+ as compared to control

Row | Compound | Average NAD^+ (pmoles/10^6 cells) [1, 3] | cellular NAD concentration ([1]; HEK cells) | other results
1 | CCCCOC(=O)C1=CN([C@@H]2O[C@H](CO)[C@H](O)[C@@H]2O)C=CC1 [Bu NaR—H, butyl-1-((2R,3S,4R,5R)-3,4-dihydroxy-5-(hydroxymethyl)tetrahydrofuran-2-yl)-1,4-dihydropyridine-3-carboxylate] | 124% | – | –
2 | CCOC(=O)C1=CN([C@@H]2O[C@H](CO)[C@H](O)[C@@H]2O)C=CC1 [Et NaR-H, ethyl-1-((2R,3S,4R,5R)-3,4-dihydroxy-5-(hydroxymethyl)tetrahydrofuran-2-yl)-1,4-dihydropyridine-3-carboxylate] | – | increased | –
3 | CCCCCCCOC(=O)C1=CN([C@@H]2O[C@H](CO)[C@H](O)[C@@H]2O)C=CC1 [Hep NaR—H, heptyl-1-((2R,3S,4R,5R)-3,4-dihydroxy-5-(hydroxymethyl)tetrahydrofuran-2-yl)-1,4-dihydropyridine-3-carboxylate] | 124% | – | –
4 | NC(=O)c1ccc[n+]([C@@H]2O[C@H](CO)[C@@H](O)[C@H]2O)c1 [NR, nicotinamide riboside] | – | – | increase in NAD^+ ([1]; HEK293, 1000 mM as printed (1 mM elsewhere in the source)): 148%; Average NAD^+ (pmoles/10^6 cells) ([1]; HEK293, 1000 mM as printed in table (1 mM elsewhere in the source), compared to control): 148%; insulin secretion level under hydrogen peroxide [2]: restored the insulin secretion level back to a similar extent as untreated control
5 | CCCCCCCCOC(=O)C1=CN([C@@H]2O[C@H](CO)[C@H](O)[C@@H]2O)C=CC1 [Oct NaR—H, octyl-1-((2R,3S,4R,5R)-3,4-dihydroxy-5-(hydroxymethyl)tetrahydrofuran-2-yl)-1,4-dihydropyridine-3-carboxylate] | 112% | – | –
6 | CCCOC(=O)C1=CN([C@@H]2O[C@H](CO)[C@H](O)[C@@H]2O)C=CC1 [Pr NaR-H, propyl-1-((2R,3S,4R,5R)-3,4-dihydroxy-5-(hydroxymethyl)tetrahydrofuran-2-yl)-1,4-dihydropyridine-3-carboxylate] | – | increased | –
